Structures can show the parent of a compound that is named as a salt.
Molecular target: T1, human NHE3 (Homo sapiens, UniProt P48764)
T1 sequence (P48764 26-834): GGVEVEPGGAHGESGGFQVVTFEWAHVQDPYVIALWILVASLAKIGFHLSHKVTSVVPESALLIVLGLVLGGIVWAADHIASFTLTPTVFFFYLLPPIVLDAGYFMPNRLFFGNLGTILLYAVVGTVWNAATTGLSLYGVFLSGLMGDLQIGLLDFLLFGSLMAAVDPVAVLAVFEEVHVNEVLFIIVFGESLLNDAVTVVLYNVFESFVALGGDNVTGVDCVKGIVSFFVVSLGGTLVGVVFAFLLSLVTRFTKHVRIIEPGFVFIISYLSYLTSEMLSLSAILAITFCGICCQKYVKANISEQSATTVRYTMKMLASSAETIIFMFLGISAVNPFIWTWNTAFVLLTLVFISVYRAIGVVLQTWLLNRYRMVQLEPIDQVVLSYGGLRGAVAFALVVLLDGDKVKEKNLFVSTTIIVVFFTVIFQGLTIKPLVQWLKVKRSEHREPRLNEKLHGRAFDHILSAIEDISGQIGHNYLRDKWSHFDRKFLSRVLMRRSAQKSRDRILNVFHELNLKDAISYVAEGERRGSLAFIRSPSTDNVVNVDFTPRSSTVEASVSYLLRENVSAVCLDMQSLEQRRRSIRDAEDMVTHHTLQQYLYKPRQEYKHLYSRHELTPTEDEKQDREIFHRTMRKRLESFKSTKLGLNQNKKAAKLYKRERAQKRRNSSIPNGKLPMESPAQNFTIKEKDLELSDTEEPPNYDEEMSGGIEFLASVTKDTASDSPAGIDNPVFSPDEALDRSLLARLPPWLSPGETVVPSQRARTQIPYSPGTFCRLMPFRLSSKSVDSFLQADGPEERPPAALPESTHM
Experiment: NHE3 inhibition test (recovery of intracellular pH in cell line stably expressing human NHE3)
Format: cell-based
Conditions: OK cells deficient in endogenous NHE stably expressing human NHE3; BCECF fluorescence, initial rate of pH recovery; read-out: human NHE3 inhibitory activity IC50
Description: (1) Preparation of Cell Line Deficient in Endogenous NHE
The cell line deficient in endogenous NHE was prepared according to the method of Jacques Pouyssegur et al. (Proc. Natl. Acad. Sci. USA. 1984, Vol. 81, 4833-4837) using opossum kidney (OK) cells (ATCC).
(2) Preparation of Expression Plasmid and Cell Line Stably Expressing Human NHE3
The expression plasmid was constructed by inserting a human NHE3 (SLC9A3, Accession No. NM_004174) cDNA sequence (GeneCopoeia, Inc.) into a pcDNA3.2/V5-DEST vector (Life Technologies Corp.).
The OK cells deficient in endogenous NHE were transfected with the constructed human NHE3 expression plasmid to prepare stably expressing cells. The transfection was carried out by electroporation using a Nucleofector 2b device (Lonza Group Ltd.). A stably expressing cell line was selected in medium supplemented with 500 μg/mL Geneticin (Life Technologies Corp.) and isolated.
NHE3 activity measurement method using cell: The activity was determined by using the NHE3-mediated recovery of intracellular pH occurring after intracellular acidification, as an index. The intracellular pH was measured by a partial modification of the pH-sensitive fluorescent indicator method reported by Tsien et al. (Proc. Natl. Acad. Sci. USA., 1984, 81, 7436-7440).
The cell line stably expressing human NHE3 was inoculated on a poly-D-lysine-coated 96-well plate (Greiner Bio-one) and cultured overnight. […] Then, Hank's balanced salt buffer solution containing 0.25 μM BCECF-AM (Dojindo Laboratories) was added to the cells, which were then incubated at 37° C. for 30 minutes. […] The cells thus incubated in the NH4Cl buffer solution were washed with NH4Cl-free buffer solution (133.8 mM choline chloride, […], 5 mM glucose, 4.7 mM KCl, 1.25 mM CaCl2, 1.25 mM MgCl2, 0.97 mM K2HPO4, 0.23 mM KH2PO4, pH 7.4) to decrease the intracellular pH. After the washing step, 70 μL of a test compound solution prepared with the NH4Cl-free buffer solution was added to the cells, and 70 iμL of sodium ion-containing buffer solution (133.8 mM NaCl, 10 mM HEPES, 5 mM glucose, 4.7 mM KCl, 1.25 mM CaCl2, 1.25 mM MgCl2, 0.97 mM Na2HPO4, 0.23 mM NaH2PO4, pH 7.4) was added thereto in a measurement system FDSS6000 (Hamamatsu Photonics K.K.) to start the recovery of pH. The recovery of intracellular pH was monitored using BCECF fluorescence (excitation wavelength: 480 nm, fluorescence wavelength: 520 to 560 nm), and the initial rate of the pH recovery was plotted. The recovery of pH without test compound was defined as the maximum recovery, and the test compound concentration necessary to inhibit 50% of the maximum recovery was calculated as an IC50 value.

## CN1Cc2c(Cl)cc(Cl)cc2[C@H](c2cccc(-c3ccc(NCCOCCOCCNC(=O)c4ccccc4C(=O)NCCOCCOCCNc4ccc(-c5cccc([C@@H]6CN(C)Cc7c(Cl)cc(Cl)cc76)c5)cn4)nc3)c2)C1 [Example 8-4, N,N′-Bis[2-(2-{2-[(5-{3-[(4S)-6,8-dichloro-2-methyl-1,2,3,4-tetrahydroisoquinolin-4-yl]phenyl}pyridin-2-yl)amino]ethoxy}ethoxy)ethyl]benzene-1,2-dicarboxamide hydrochloride]
  IC50: 115 nM

## CN1Cc2c(Cl)cc(Cl)cc2[C@H](c2cccc(-c3nnc(CCOCCOCCNC(=O)NCCCCNC(=O)NCCOCCOCCc4nnc(-c5cccc([C@@H]6CN(C)Cc7c(Cl)cc(Cl)cc76)c5)o4)o3)c2)C1 [Example 7-23, 1,1′-Butane-1,4-diylbis[3-(2-{2-[2-(5-{3-[(4S)-6,8-dichloro-2-methyl-1,2,3,4-tetrahydroisoquinolin-4-yl]phenyl}-1,3,4-oxadiazol-2-yl)ethoxy]ethoxy}ethyl)urea]tetraformate]
  IC50: 5.5 nM

## CN1Cc2c(Cl)cc(Cl)cc2[C@H](c2cccc(-c3ccc(NCCOCCOCCNC(=O)CCC(=O)NCCOCCOCCNc4ccc(-c5cccc([C@@H]6CN(C)Cc7c(Cl)cc(Cl)cc76)c5)cn4)nc3)c2)C1 [Example 8-1, N,N′-Bis[2-(2-{2-[(5-{3-[(4S)-6,8-dichloro-2-methyl-1,2,3,4-tetrahydroisoquinolin-4-yl]phenyl}pyridin-2-yl)amino]ethoxy}ethoxy)ethyl]butanediamide hydrochloride]
  IC50: 14.9 nM

## CN1Cc2c(Cl)cc(Cl)cc2[C@@H](c2cccc(-c3cc(NCCOCCOCCOCCNC(=O)COCC(=O)NCCOCCOCCOCCNc4cc(-c5cccc([C@@H]6CN(C)Cc7c(Cl)cc(Cl)cc76)c5)ncn4)ncn3)c2)C1 [Example 8-11, 1-[(6-{3-[(4R)-6,8-Dichloro-2-methyl-1,2,3,4-tetrahydroisoquinolin-4-yl]phenyl}pyrimidin-4-yl)amino]-N-{2-[2-(2-{2-[(6-{3-[(4S)-6,8-dichloro-2-methyl-1,2,3,4-tetrahydroisoquinolin-4-yl]phenyl}pyrimidin-4-yl)amino]ethoxy}ethoxy)ethoxy]ethyl}-13-oxo-3,6,9,15-tetraoxa-12-azaheptadecan-17-amide hydrochloride]
  IC50: 7.5 nM

## Cc1cc(-c2cccc([C@@H]3CN(C)Cc4c(Cl)cc(Cl)cc43)c2)cnn1 [Example 1-5, (4S)-6,8-Dichloro-2-methyl-4-[3-(6-methylpyridazin-4-yl)phenyl]-1,2,3,4-tetrahydroisoquinoline trifluoroacetate]
  IC50: 58.1 nM

## CNc1cc(-c2cccc([C@@H]3CN(C)Cc4c(Cl)cc(Cl)cc43)c2)ncn1 [Example 1-15, 6-{3-[(4S)-6,8-Dichloro-2-methyl-1,2,3,4-tetrahydroisoquinolin-4-yl]phenyl}-N-methylpyrimidin-4-amine trifluoroacetate]
  IC50: 117 nM

## CN1Cc2c(Cl)cc(Cl)cc2[C@H](c2cccc(-c3ccc[nH]3)c2)C1 [Example 1-21, (4S)-6,8-Dichloro-2-methyl-4-[3-(1H-pyrrol-2-yl)phenyl]-1,2,3,4-tetrahydroisoquinoline]
  IC50: 1170 nM

## CN1Cc2c(Cl)cc(Cl)cc2[C@H](c2cccc(-c3cn(CCOCCOCCOCCOCCNC(=O)NCCCCNC(=O)NCCOCCOCCOCCOCCn4cc(-c5cccc([C@@H]6CN(C)Cc7c(Cl)cc(Cl)cc76)c5)nn4)nn3)c2)C1 [Example 7-1, 1,1′-Butane-1,4-diylbis {3-[14-(4-{3-[(4S)-6,8-dichloro-2-methyl-1,2,3,4-tetrahydroisoquinolin-4-yl]phenyl}-1H-1,2,3-triazol-1-yl)-3,6,9,12-tetraoxatetradec-1-yl]urea}hydrochloride]
  IC50: 2.2 nM

Reference: patent US9932331B2, “Phenyl tetrahydroisoquinoline compound substituted with heteroaryl” (TAISHO PHARMACEUTICAL CO., LTD, priority 2014, dated 2018)
